Reference: the CheMixHub ionic liquid set

Experiment: xn = mol fraction of the nth substance listed

COCCOCCOC + CCCC[n+]1ccn(C)c1.F[P-](F)(F)(F)(F)F
100 kPa
Settings	viscosity [mPa·s]
283.15 K, x2 = 0.2056	7.206
283.15 K, x2 = 0.5857	63.81
283.15 K, x2 = 0.8057	237.7
283.15 K, x2 = 0.8992	407
293.15 K, x2 = 0.1028	2.611
293.15 K, x2 = 0.4923	23.24
293.15 K, x2 = 0.5839	39.17
293.15 K, x2 = 0.9523	295.7
303.15 K, x2 = 0.0572	1.283
303.15 K, x2 = 0.3956	8.98
303.15 K, x2 = 0.7842	65.7
313.15 K, x2 = 0.3979	4.083
313.15 K, x2 = 0.5861	13.01

C[N+](C)(C)CCC[n+]1ccccc1.N#C[N-]C#N.N#C[N-]C#N + CC#N
100 kPa
Settings	viscosity [mPa·s]
283.15 K, x1 = 0.7001	857
288.15 K, x1 = 0.8997	1336
288.15 K, x1 = 1	3879
293.15 K, x1 = 0.1999	10.8
293.15 K, x1 = 0.3997	75.8
293.15 K, x1 = 1	2191
298.15 K, x1 = 0.8997	561
303.15 K, x1 = 0.0999	3
303.15 K, x1 = 0.2998	24.3
303.15 K, x1 = 0.7998	271
308.15 K, x1 = 0.1999	7.71
318.15 K, x1 = 0.2998	16
323.15 K, x1 = 0.0999	2.43
323.15 K, x1 = 1	210
333.15 K, x1 = 0.1999	5.08
333.15 K, x1 = 0.6002	37.6

CC(=O)[O-].Cn1cc[n+](CCO)c1 + O
100 kPa
Settings	viscosity [mPa·s]
293.15 K, x1 = 0.9003	93.9
298.15 K, x1 = 0.8317	41.2
298.15 K, x1 = 0.8712	56.8
303.15 K, x1 = 0.8317	32
303.15 K, x1 = 0.8712	43.6
308.15 K, x1 = 0.8317	25.4
308.15 K, x1 = 0.8818	36.7
313.15 K, x1 = 0.8632	25.8
313.15 K, x1 = 0.8712	26.6
313.15 K, x1 = 0.8818	29
323.15 K, x1 = 0.8818	19.3
328.15 K, x1 = 0.8712	14.72
333.15 K, x1 = 0.8818	13.46
333.15 K, x1 = 0.9003	14.78

c1c[nH]cn1 + CC(C)C[P+](C)(CC(C)C)CC(C)C.Cc1ccc(S(=O)(=O)[O-])cc1
Settings	viscosity [mPa·s]
313.09 K, 101.33 kPa, x2 = 0.5	181

C[N+](C)(C)CCC[n+]1ccccc1.N#C[N-]C#N.N#C[N-]C#N + CO
100 kPa
Settings	viscosity [mPa·s]
293.15 K, x1 = 0.3999	69.9
293.15 K, x1 = 0.8995	950
303.15 K, x1 = 0.5002	78.6
303.15 K, x1 = 0.7003	184
313.15 K, x1 = 0.0999	3.18
313.15 K, x1 = 0.3999	31.9
313.15 K, x1 = 0.5002	53.3
313.15 K, x1 = 0.7998	145
313.15 K, x1 = 1	386
323.15 K, x1 = 0.3002	13.6
323.15 K, x1 = 0.3999	23.6
323.15 K, x1 = 0.5002	38.3
323.15 K, x1 = 0.6001	54.1
333.15 K, x1 = 0.0999	2.54
333.15 K, x1 = 0.2001	6.12
333.15 K, x1 = 0.3999	18.5
333.15 K, x1 = 0.6001	38.5
